The structures appear in SMILES notation.

In the test the target is DGKα (Homo sapiens, UniProt P23743). The test can be described thus: Human DGKα kinase activity inhibition assay (ADP-Glo). It counts as biochemical. The conditions noted are these: in vitro human DGKα kinase activity inhibition assay. An outline of the steps: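 C-terminally FLAG-tagged full-length human DGKα from baculovirus/insect cells (typically ~0.1 nM) phosphorylated 1,2-dioleoyl-sn-glycerol in octyl-β-D-glucopyranoside micelles in MOPS pH 7.4. ADP formed was quantified by ADP-Glo luminescence after 1 h ATP depletion at 22 °C.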
Chain of DGKα (P23743 with tags, fused parts or gaps): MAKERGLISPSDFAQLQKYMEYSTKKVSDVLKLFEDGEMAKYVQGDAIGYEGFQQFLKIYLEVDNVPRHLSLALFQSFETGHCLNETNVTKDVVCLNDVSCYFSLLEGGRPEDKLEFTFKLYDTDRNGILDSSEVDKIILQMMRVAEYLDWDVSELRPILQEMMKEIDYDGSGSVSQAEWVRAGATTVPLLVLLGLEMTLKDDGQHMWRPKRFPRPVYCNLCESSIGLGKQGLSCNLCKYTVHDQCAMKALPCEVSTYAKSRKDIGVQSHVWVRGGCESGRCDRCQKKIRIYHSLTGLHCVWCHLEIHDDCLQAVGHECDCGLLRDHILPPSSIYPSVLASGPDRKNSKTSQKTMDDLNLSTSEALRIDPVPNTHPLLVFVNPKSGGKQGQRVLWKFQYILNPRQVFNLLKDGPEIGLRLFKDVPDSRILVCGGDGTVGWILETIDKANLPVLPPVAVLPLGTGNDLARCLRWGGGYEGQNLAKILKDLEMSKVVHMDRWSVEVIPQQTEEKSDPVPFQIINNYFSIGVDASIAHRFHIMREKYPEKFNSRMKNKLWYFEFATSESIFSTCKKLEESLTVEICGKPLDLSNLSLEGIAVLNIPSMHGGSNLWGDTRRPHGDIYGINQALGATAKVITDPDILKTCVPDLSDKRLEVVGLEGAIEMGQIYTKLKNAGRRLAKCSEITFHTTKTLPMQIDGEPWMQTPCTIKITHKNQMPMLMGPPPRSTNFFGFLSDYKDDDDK
The term IC50 denotes the point on the concentration scale where inhibition reaches its midpoint. In the case of `Cn1c(=O)c(C#N)c(N2CCC(Oc3ccc(OC(F)(F)F)cc3)CC2)c2ccc(Br)cc21` [Example 58, 7-bromo-1-methyl-2-oxo-4-{4-[4-(trifluoromethoxy)phenoxy]piperidin-1-yl}-1,2-dihydroquinoline-3-carbonitrile], 19 nM corresponded to half-maximal inhibition (IC50).
Compound `COc1ccc(COC2CCN(c3c(C#N)c(=O)n(C)c4ccccc34)CC2)cc1` [Example 109, 4-{4-[(4-methoxyphenyl)methoxy]piperidin-1-yl}-1-methyl-2-oxo-1,2-dihydroquinoline-3-carbonitrile] displayed a concentration for half-maximal inhibition (IC50) of 16 nM.
For the compound `Cc1ccc(COC2CCN(c3c(C#N)c(=O)n(C)c4ccccc34)CC2)cc1` [Example 107, 1-methyl-4-{4-[(4-methylphenyl)methoxy]piperidin-1-yl}-2-oxo-1,2-dihydroquinoline-3-carbonitrile], the IC50 amounted to 7.2 nM.
Take `Cn1c(=O)c(C#N)c(N2CCC(Oc3cccc(OC(F)(F)F)c3)CC2)c2ccc(P(C)(C)=O)cc21` [Example 78, 7-(dimethylphosphoryl)-1-methyl-2-oxo-4-{4-[3-(trifluoromethoxy)phenoxy]piperidin-1-yl}-1,2-dihydroquinoline-3-carbonitrile]: the IC50 turned out to be 1130 nM.
For `Cn1c(=O)c(C(N)=O)c(N2CCC(OCc3ccc(F)cc3)CC2)c2ccccc21` [Example 127, 4-{4-[(4-fluorophenyl)methoxy]piperidin-1-yl}-1-methyl-2-oxo-1,2-dihydroquinoline-3-carboxamide], inhibition was half-maximal at 14 nM (IC50).
For the compound `COc1cccc(OC2CCN(c3c(C#N)c(=O)n(C)c4ccccc34)CC2)c1` [Example 4, 4-[4-(3-methoxyphenoxy)piperidin-1-yl]-1-methyl-2-oxo-1,2-dihydroquinoline-3-carbonitrile], the IC50 is 6.3 nM.
With `Cc1ccccc1COC1CCN(c2c(C(N)=O)c(=O)n(C)c3ccccc23)CC1` [Example 124, 1-methyl-4-{4-[(2-methylphenyl)methoxy]piperidin-1-yl}-2-oxo-1,2-dihydroquinoline-3-carboxamide] the figure was 30 nM; with `CN1CCN(c2ccc(OC3CCN(c4c(C#N)c(=O)n(C)c5ccccc45)CC3)cc2)C(=O)C1` [Example 24, 1-methyl-4-{4-[4-(4-methyl-2-oxopiperazin-1-yl)phenoxy]piperidin-1-yl}-2-oxo-1,2-dihydroquinoline-3-carbonitrile], 266 nM.
With `COc1ccc(OC2CCN(c3c(C#N)c(=O)n(C)c4ccccc34)CC2)cc1` [Example 46, 4-[4-(4-methoxyphenoxy)piperidin-1-yl]-1-methyl-2-oxo-1,2-dihydroquinoline-3-carbonitrile] the figure was 32 nM.
With `Cn1c(=O)c(C(N)=O)c(N2CCC(Oc3ccc(OC(F)F)cc3)CC2)c2ccccc21` [Example 52, 4-{4-[4-(difluoromethoxy)phenoxy]piperidin-1-yl}-1-methyl-2-oxo-1,2-dihydroquinoline-3-carboxamide] the figure was 3.8 nM; with `Cc1ccc2c(c1)c(N1CCC(Oc3ccccc3C)CC1)c(C#N)c(=O)n2C` [Example 150, 1,6-dimethyl-4-[4-(2-methylphenoxy)piperidin-1-yl]-2-oxo-1,2-dihydroquinoline-3-carbonitrile], 50 nM.
`CN(C)c1ccc(OC2CCN(c3c(C#N)c(=O)n(C)c4ccccc34)CC2)cc1` [Example 45, 4-{4-[4-(dimethylamino)phenoxy]piperidin-1-yl}-1-methyl-2-oxo-1,2-dihydroquinoline-3-carbonitrile] displayed an IC50 of 31 nM.
`COc1cccc(COC2CCN(c3c(C#N)c(=O)n(C)c4ccccc34)CC2)c1` [Example 115, 4-{4-[(3-methoxyphenyl)methoxy]piperidin-1-yl}-1-methyl-2-oxo-1,2-dihydroquinoline-3-carbonitrile] showed a half-inhibitory concentration (IC50) of 29 nM.
`Cn1c(=O)c(C#N)c(N2CCC(Oc3ccc(OC(F)(F)F)cc3)CC2)c2ccc(P(C)(C)=O)cc21` [Example 79, 7-(dimethylphosphoryl)-1-methyl-2-oxo-4-{4-[4-(trifluoromethoxy)phenoxy]piperidin-1-yl}-1,2-dihydroquinoline-3-carbonitrile] registered an IC50 of 416 nM.
In the case of `Cn1c(=O)c(C#N)c(N2CCC(Oc3ccc(Br)cc3)CC2)c2ccccc21` [Example 8, 4-[4-(4-bromophenoxy)piperidin-1-yl]-1-methyl-2-oxo-1,2-dihydroquinoline-3-carbonitrile], the IC50 amounted to 13 nM.
On to `Cc1ccc2c(c1)c(N1CCC(Oc3ccc(OC(F)(F)F)cc3)CC1)c(C(N)=O)c(=O)n2C` [Example 160, 1,6-dimethyl-2-oxo-4-{4-[4-(trifluoromethoxy)phenoxy]piperidin-1-yl}-1,2-dihydroquinoline-3-carboxamide], for which the IC50 came to 3.1 nM.
On to `Cn1c(=O)c(C#N)c(N2CCC(Oc3ccc(OC(F)(F)F)cc3)CC2)c2ccc(Cl)cc21` [Example 64, 7-chloro-1-methyl-2-oxo-4-{4-[4-(trifluoromethoxy)phenoxy]piperidin-1-yl}-1,2-dihydroquinoline-3-carbonitrile], for which the midpoint of inhibition, the IC50, lay at 16 nM.
Consider `Cn1c(=O)c(C#N)c(N2CCC(Oc3ccc(OC(F)(F)F)cc3)CC2)c2ccc(F)cc21` [Example 63, 7-fluoro-1-methyl-2-oxo-4-{4-[4-(trifluoromethoxy)phenoxy]piperidin-1-yl}-1,2-dihydroquinoline-3-carbonitrile], for which the IC50 turned out to be 12 nM.
With `Cn1c(=O)c(C#N)c(N2CCC(Oc3ccc(OC(F)(F)F)cc3)CC2)c2cccc(F)c21` [Example 129, 8-fluoro-1-methyl-2-oxo-4-{4-[4-(trifluoromethoxy)phenoxy]piperidin-1-yl}-1,2-dihydroquinoline-3-carbonitrile] the figure was 29 nM; with `Cn1c(=O)c(C#N)c(N2CCC(Oc3ccc(C(F)(F)F)cc3)CC2)c2ccc(Br)cc21` [Example 59, 7-bromo-1-methyl-2-oxo-4-{4-[4-(trifluoromethyl)phenoxy]piperidin-1-yl}-1,2-dihydroquinoline-3-carbonitrile], 18 nM.
As to `Cn1c(=O)c(C#N)c(N2CCC(OCc3cccc(F)c3)CC2)c2ccccc21` [Example 113, 4-{4-[(3-fluorophenyl)methoxy]piperidin-1-yl}-1-methyl-2-oxo-1,2-dihydroquinoline-3-carbonitrile], the IC50 is 12 nM.
As for `Cc1cccc(COC2CCN(c3c(C(N)=O)c(=O)n(C)c4ccccc34)CC2)c1` [Example 123, 1-methyl-4-{4-[(3-methylphenyl)methoxy]piperidin-1-yl}-2-oxo-1,2-dihydroquinoline-3-carboxamide], half-maximal inhibition (IC50) required 14 nM.
`Cn1c(=O)c(C#N)c(N2CCC(Oc3ccc4cnoc4c3)CC2)c2ccccc21` [Example 29, 4-{4-[(1,2-benzoxazol-6-yl)oxy]piperidin-1-yl}-1-methyl-2-oxo-1,2-dihydroquinoline-3-carbonitrile] had an IC50 of 654 nM.
`Cc1ccc2c(c1)c(N1CCC(Oc3ccc(F)cc3)CC1)c(C#N)c(=O)n2C` [Example 141, 4-[4-(4-fluorophenoxy)piperidin-1-yl]-1,6-dimethyl-2-oxo-1,2-dihydroquinoline-3-carbonitrile] came in with an IC50 of 7.7 nM.
With `Cn1c(=O)c(C#N)c(N2CCC(Oc3ccc(-n4cncn4)cc3)CC2)c2ccccc21` [Example 17, 1-methyl-2-oxo-4-{4-[4-(1H-1,2,4-triazol-1-yl)phenoxy]piperidin-1-yl}-1,2-dihydroquinoline-3-carbonitrile] the figure was 45 nM; with `Cn1c(=O)c(C#N)c(N2CCC(Oc3ccc(OC(F)(F)F)cc3)CC2)c2ccc(N3CCCC3=O)cc21` [Example 82, 1-methyl-2-oxo-7-(2-oxopyrrolidin-1-yl)-4-{4-[4-(trifluoromethoxy)phenoxy]piperidin-1-yl}-1,2-dihydroquinoline-3-carbonitrile], 12 nM; with `Cn1c(=O)c(C#N)c(N2CCC(Oc3ccccc3)CC2)c2ccccc21` [Example 5, 1-methyl-2-oxo-4-(4-phenoxypiperidin-1-yl)-1,2-dihydroquinoline-3-carbonitrile], 7.7 nM.
With `COc1ccccc1OC1CCN(c2c(C(N)=O)c(=O)n(C)c3ccc(C)cc23)CC1` [Example 162] the figure was 57 nM.
The compound `Cn1c(=O)c(C#N)c(N2CCC(Oc3ccc(OC(F)(F)F)cc3)CC2)c2cccc(N3CCCC3=O)c21` [Example 133, 1-methyl-2-oxo-8-(2-oxopyrrolidin-1-yl)-4-{4-[4-(trifluoromethoxy)phenoxy]piperidin-1-yl}-1,2-dihydroquinoline-3-carbonitrile] registered an IC50 of 55 nM.
The compound `Cn1c(=O)c(C#N)c(N2CCC(Oc3ccc(F)cc3)CC2)c2ccc(Br)cc21` [Example 56, 7-bromo-4-[4-(4-fluorophenoxy)piperidin-1-yl]-1-methyl-2-oxo-1,2-dihydroquinoline-3-carbonitrile] showed an IC50 of 9.9 nM.
With `Cn1c(=O)c(C#N)c(N2CCC(Cc3nc4ccccc4s3)CC2)c2ccccc21` [Example 93, 4-{4-[(1,3-benzothiazol-2-yl)methyl]piperidin-1-yl}-1-methyl-2-oxo-1,2-dihydroquinoline-3-carbonitrile] the figure was 39 nM; with `COc1ccccc1OC1CCN(c2c(C#N)c(=O)n(C)c3ccc(C)cc23)CC1` [Example 154, 4-[4-(2-methoxyphenoxy)piperidin-1-yl]-1,6-dimethyl-2-oxo-1,2-dihydroquinoline-3-carbonitrile], 13 nM.
With `Cc1ccc2c(c1)c(N1CCC(Oc3ccc(OC(F)(F)F)cc3)CC1)c(C#N)c(=O)n2C` [Example 143, 1,6-dimethyl-2-oxo-4-{4-[4-(trifluoromethoxy)phenoxy]piperidin-1-yl}-1,2-dihydroquinoline-3-carbonitrile] the figure was 4.7 nM; with `Cn1c(=O)c(C(N)=O)c(N2CCC(OCc3ccccc3)CC2)c2ccccc21` [Example 121, 4-[4-(benzyloxy)piperidin-1-yl]-1-methyl-2-oxo-1,2-dihydroquinoline-3-carboxamide], 16 nM.
